Data: paper PMC9415646, “Improving Aqueous Solubility and In Vitro Pharmacokinetic Properties of the 3-Nitroimidazo[1,2-a]pyridine Antileishmanial Pharmacophore” (Pharmaceuticals, 2022)
Values joined by “and” are separate entries in the source; they are usually repeats but may differ in a detail not shown here. Equal entries are not always repeated.

Experiments:
[1] = tested on: L. donovani promastigotes; assay: Antileishmanial activity against L. donovani promastigotes (MTT assay); type: cell-based; settings: Leishmania donovani; promastigotes, 72 h, MTT; read-out: EC50 L. donovani Pro.
Description: The Leishmania species used in this study were L. donovani (MHOM/IN/00/DEVI) purchased from CNR Leishmania (Montpellier, France). Leishmania promastigote forms were grown in Schneider’s Drosophila medium (Life Technologies, Saint-Aubin, France) supplemented with 100 U/mL penicillin, 100 µg/mL streptomycin, 2 mM L-glutamine and 20% FCS (Life Technologies, Saint-Aubin, France) at 27 °C. The in vitro evaluation of the tested compound’s antileishmanial activity on promastigote forms was carried out by MTT assay according to the Mosmann protocol with some modifications. Briefly, promastigotes in log-phase were incubated at an average density of 10^6 parasites/mL in sterile 96-well plates with various concentrations of compound dissolved in DMSO (final concentration less than 0.5% v/v), in duplicate. Appropriate controls treated with DMSO, Miltefosine, Amphotericin B, Fexinidazole, and Fexinidazole sulfone (reference drugs purchased from Sigma-Aldrich, Saint-Louis, Missouri, USA) were added to each set of experiments. After a 72 h incubation period at 27 °C, parasitic metabolic activity was determined. Each plate-well was then microscope-analyzed to detect any precipitate formation. 20 µL of MTT (3-(4,5-dimethylthiazol-2-yl)-2,5-diphenyltetrazolium bromide) (Sigma-Aldrich, Saint-Louis, Missouri, USA) solution (5 mg/mL in PBS) were added to each well and incubated for 4 h at 27 °C. The enzyme reaction was then stopped by addition of 100 µL of 50% isopropanol–10% sodium dodecyl sulfate. Plates were shaken vigorously at 300 rpm for 10 min. The absorbance was measured at 570 nm in a BIO-TEK Elx808 (Biotek, Colmar, France) absorbance microplate reader. […] EC50 values were calculated by non-linear regression analysis processed dose-response curves, using TableCurve 2D V5.0 software (Systat Software Inc. (Palo Alto, CA, USA)). EC50 values represent the mean value calculated from at least three separate experiments.

[2] = tested on: L. infantum promastigotes; assay: Antileishmanial activity against L. infantum promastigotes (luciferase assay); type: cell-based; settings: Leishmania infantum, 72 h, read-out: EC50 L. infantum Pro.
Description: L. infantum promastigotes (MHOM/MA/67/ITMAP-263, CNR Leishmania, Montpellier, France, expressing luciferase activity) were used in the following tests. The effects of the tested compounds on the growth of L. infantum promastigotes were assessed by Luciferase Assay. Briefly, promastigotes in log-phase in RPMI 1640 medium supplemented with 10% fetal calf serum (FCS), 2 mM L-glutamine and antibiotics (100U/mL penicillin, 100 µg/mL streptomycin and 50µg/mL geneticin), were incubated at an average density of 10^6 parasites/mL (100 µL/well) in sterile 96-well plates with various concentrations of compounds dissolved in DMSO (final concentration less than 0.5% v/v), in duplicate. Appropriate controls (100 µL/well) treated by DMSO and reference drugs (purchased for the majority from Sigma Aldrich) were added to each set of experiments. After a 72 h incubation period at 24 °C, each plate-well was then microscope-examined for detecting possible precipitate formation. To estimate the luciferase activities of promastigotes, 80 µL of each well are transferred in white 96-well plates, Steady Glow reagent (Promega) was added according to manufacter’s instructions, and plates were incubated for 2 min. The luminescence was measured in a FLUOstar Omega (BMG Labtech, Champigny-sur-Marne, France). […] EC50 were calculated by non-linear regression analysis processed on dose–response curves, using TableCurve 2D V5 software.

[3] = tested on: L. infantum axenic amastigotes; assay: Antileishmanial activity on L. infantum axenic amastigotes (luciferase assay); type: cell-based; settings: Leishmania infantum, 48 h, read-out: EC50 L. infantum Axenic Ama.
Description: L. infantum promastigotes were harvested in logarithmic phase of growth by centrifugation at 900× g for 10 min. The supernatant was removed carefully and was replaced by the same volume of RPMI 1640 complete medium at pH 5.4 and incubated for 24 h at 24 °C. The acidified promastigotes were then incubated for 24 h at 37 °C in a ventilated flask to transform them into axenic amastigotes. The amastigote stage was checked both by electron microscopy (short flagellum with small bulbous tip extending beyond a spherical cell body) and RT-PCR to confirm the overexpression of ATG8 and amastin genes in amastigotes, relative to promastigotes. The effects of the tested compounds on the growth of L. infantum axenic amastigotes were assessed as follows. L. infantum amastigotes were incubated at a density of 2 × 10^6 parasites/mL in sterile 96-well plates with various concentrations of compounds dissolved in DMSO (final concentration less than 0.5% v/v), in duplicate. Appropriate controls treated with DMSO, amphotericin B, miltefosine, fexinidazole and fexinidazole sulfone were added to each set of experiments. After a 48 h incubation period at 37 °C, each plate-well was then microscopically examined to detect any precipitate formation.
• Luciferase activity and determination of EC50 were performed as above.

[4] = Cytotoxicity evaluation on HepG2 cell line (MTT); type: cell-based; settings: human, HepG2 cells
Description: The tested molecules’ cytotoxicity was assessed according to the method of Mosmann with slight modifications. […] Triplicate assays were performed for each sample. Each plate-well was then microscope-examined to detect possible precipitate formation before the medium was aspirated from the wells. 100 µL of MTT (3-(4,5-dimethyl-2-thiazolyl)-2,5-diphenyl-2H-tetrazolium bromide) solution (0.5 mg/mL in medium without FCS) were then added to each well. […] Plates were shaken vigorously (700 rpm) for 10 min. The absorbance was measured at 570 nm with 630 nm as reference wavelength using a BIO-TEK ELx808 Absorbance Microplate Reader. DMSO was used as blank and doxorubicin (purchased from Sigma Aldrich) as positive control. Cell viability was calculated as percentage of control (cells incubated without compound). […] (Palo Alto, CA, USA)). CC50 values represent the mean value calculated from three separate experiments.

[5] = Cytotoxicity on THP-1 cell line (MTT); type: cell-based; settings: human, THP-1 cells, THP1 cell line
Description: The plates were incubated for 72 h at 37 °C. Each well plate was then microscope-examined for detecting possible precipitate formation before the medium was aspirated from the wells. 100 µL of MTT solution (0.5 mg/mL in medium) were then added to each well. Cells were incubated for 2 h at 37 °C. […] Plates were shaken vigorously (300 rpm) for 10 min. The absorbance was measured at 570 nm using a BIO-TEK ELx808 Absorbance Microplate Reader. DMSO was used as blank and doxorubicin (purchased from Sigma Aldrich) as positive control. Cell viability was calculated as percentage of control (cells incubated with DMSO). […] (Palo Alto, CA, USA). CC50 values represent the mean value calculated from three separate experiments.

[6] = Redox potential of the nitro group by cyclic voltammetry; type: physicochemical; settings: cyclic voltammetry in DMSO, corrected versus NHE
Description: Voltammetric measurements were carried out with a potentiostat Autolab PGSTAT100 (ECO Chemie, Utrecht, The Netherlands) controlled by GPES 4.09 software (ECO Chemie, Utrecht, The Netherlands). Experiments were performed at room temperature in a homemade airtight three–electrode cell connected to a vacuum/argon line. The reference electrode consisted of a saturated calomel electrode (SCE) separated from the solution by a bridge compartment. The counter electrode was a platinum wire of 1 cm^2 apparent surface. The working electrode was a GC microdisk (1.0 mm in diameter–Bio-logic SAS). The supporting electrolyte (nBu4N)[PF6] (Fluka, 99% puriss electrochemical grade) and the solvent DMSO (Sigma-Aldrich puriss p.a. dried <0.02% water) were used as received and simply degassed under argon. The solutions used during electrochemical analyses were typically 10^−3 M in compound and 0.1 M in supporting electrolyte. Before each measurement, the solutions were degassed by bubbling Ar, and the working electrode was polished with a polishing machine (Presi P230, Eybens, France). Under the experimental conditions adopted in this work, the half-wave potential (E1/2) of the ferrocene Fc+/Fc couple in DMSO was E1/2 = 0.45 V vs. SCE. Experimental peak potentials were measured versus SCE and converted to NHE by adding 0.241 V.

Row | Compound | EC50 [1] | EC50 [2] | EC50 [3] | CC50 at 72 h [4] | CC50 at 72 h [5] | E0 (redox potential of the nitro group) [6] | melting point
1 | O=[N+]([O-])c1c(CS(=O)(=O)c2ccc(F)cc2)nc2c(Cl)cc(Cl)cn12 [Compound 1c, 6,8-Dichloro-2-[(4-fluorophenylsulfonyl)methyl]-3-nitroimidazo[1,2-a]pyridine] | 5.8 ± 1.9 µM | > 100 µM | > 1.6 µM | > 7.8 µM | 22.5 ± 1.1 µM | −0.60 V and −0.6 V | 224 °C
2 | O=[N+]([O-])c1c(CS(=O)(=O)c2ccc(C(F)(F)F)cc2)nc2c(Cl)cc(Cl)cn12 [Compound 1d, 6,8-Dichloro-3-Nitro-2-[(4-Trifluoromethylphenylsulfonyl)methyl]imidazo[1,2-a]pyridine] | 4.1 ± 0.4 µM | > 100 µM | 2.2 ± 0.1 µM | > 15.6 µM | 23.2 ± 1.9 µM | −0.60 V and −0.6 V | 196 °C
3 | O=[N+]([O-])c1c(CS(=O)(=O)c2ccc(Cl)cc2)nc2c(Br)cc(Cl)cn12 [Compound 2d, 8-Bromo-6-Chloro-2-[(4-Chlorophenylsulfonyl)methyl]-3-Nitroimidazo[1,2-a]pyridine] | 3 ± 0.4 µM | 3.5 ± 0.4 µM | 2.1 ± 0.3 µM | > 12.5 µM | > 31.2 µM | −0.62 V | 222 °C
4 | O=[N+]([O-])c1c(CS(=O)(=O)c2ccc(F)cc2)nc2c(Br)cc(Cl)cn12 [Compound 2e, 8-Bromo-6-Chloro-2-[(4-Fluorophenylsulfonyl)methyl]-3-Nitroimidazo[1,2-a]pyridine] | 2.8 ± 0.5 µM | > 100 µM | 3.3 ± 0.1 µM | > 7.8 µM | 33.3 ± 1.4 µM | −0.64 V | 222 °C
5 | CC(C)S(=O)(=O)Cc1nc2c(Br)cc(Cl)cn2c1[N+](=O)[O-] [Compound 2h, 8-Bromo-6-Chloro-2-[(isopropylsulfonyl)methyl]-3-Nitroimidazo[1,2-a]pyridine] | > 25 µM | 61.2 ± 3.4 µM | > 50 µM | > 62.5 µM | > 100 µM | −0.65 V | 183 °C
6 | O=[N+]([O-])c1c(CS(=O)(=O)C2CC2)nc2c(Br)cc(Cl)cn12 [Compound 2i, 8-Bromo-6-Chloro-2-[(cyclopropylsulfonyl]methyl)-3-Nitroimidazo[1,2-a]pyridine] | > 25 µM | > 50 µM | > 50 µM | > 6.2 µM | > 50 µM | −0.63 V | 250 °C
7 | O=[N+]([O-])c1c(CS(=O)(=O)CCC(F)(F)F)nc2c(Br)cc(Cl)cn12 [Compound 2j, 8-Bromo-6-Chloro-3-Nitro-2-[(3,3,3-Trifluoropropylsulfonyl)methyl]imidazo[1,2-a]pyridine] | 14.4 ± 1.6 µM | 1.9 ± 0.4 µM | 20.1 ± 5.6 µM | 42.9 ± 12.3 µM | 26 ± 1.2 µM | −0.60 V and −0.6 V | 181 °C
8 | CC(C)S(=O)(=O)Cc1nc2c(Sc3ccc(Cl)cc3)cc(Cl)cn2c1[N+](=O)[O-] [Compound 3g, 6-Chloro-8-[(4-Chlorophenyl)thio]-2-[(isopropylsulfonyl)methyl]-3-Nitroimidazo[1,2-a]pyridine] | 2.2 ± 0.3 µM | 2.4 ± 0.6 µM | 3.2 ± 0.1 µM | 22.2 ± 5.5 µM | > 31.2 µM | −0.63 V | 208 °C
9 | O=[N+]([O-])c1c(C[S+]([O-])c2ccccc2)nc2c(Br)cc(Cl)cn12 (centres unmarked) [Compound 5, 8-Bromo-6-Chloro-3-Nitro-2-[(phenylsulfinyl)methyl]imidazo[1,2-a]pyridine] |  |  |  |  |  |  | 198 °C
10 | COc1cccc2c1C(=O)c1c(O)c3c(c(O)c1C2=O)C[C@@](O)(C(=O)CO)C[C@@H]3O[C@H]1C[C@H](N)[C@H](O)[C@H](C)O1 [Doxorubicin, reference compound] |  |  |  | 0.2 ± 0.02 µM | 0.8 ± 0.1 µM |  | 
